In brackets after ≈: the same amount, converted by molar mass.
Experiments:
[1] = test system: Streptococcus faecalis ATCC 10541; test: Antibacterial activity (minimum growth inhibitory concentration), agar dilution method; type: cell-based; settings: Enterococcus faecalis, ATCC10541; Streptococcus faecalis ATCC 10541, pH 7.0, agar dilution method; read-out: minimum growth inhibitory concentration, SF
Description: (§1) Antibacterial activities of Compounds (I) against various bacteria are shown by the minimum growth inhibitory concentration (μg/ml) in Table 3. The minimum growth inhibitory concentration was measured at pH 7.0 according to the agar dilution method. In the table, bacteria are indicated by the following letters.
SF: Streptococcus faecalis ATCC 10541

[2] = test system: Staphylococcus aureus ATCC 6538P; test: as above; type: cell-based; settings: ATCC6538P, pH 7.0, agar dilution method, read-out: minimum growth inhibitory concentration, SA
Description: as §1
SA: Staphylococcus aureus ATCC 6538P

[3] = test system: Bacillus subtilis 10707; test: as above; type: cell-based; settings: Bacillus subtilis 10707, pH 7.0, agar dilution method; read-out: minimum growth inhibitory concentration, BS
Description: as §1
BS: Bacillus subtilis 10707

[4] = test system: Proteus vulgalis ATCC 6897; test: as above; type: cell-based; settings: pH 7, read-out: minimum growth inhibitory concentration, PV
Description: as §1
PV: Proteus vulgalis ATCC 6897

[5] = test system: Klebsiella pneumoniae ATCC 10031; test: as above; type: cell-based; settings: ATCC10031; Klebsiella pneumoniae ATCC 10031, pH 7.0, agar dilution method; read-out: minimum growth inhibitory concentration, KP
Description: as §1
KP: Klebsiella pneumoniae ATCC 10031

[6] = test system: Sarcoma 180 solid tumour; test: animal or person; settings: for CIc: CI of test compound divided by CI of mitomycin C as control in the same condition; for ED50: Mus musculus, Sarcoma-180, iv, 168 h; for CI (LD50/ED50): chemotherapeutic index
Description: CIc : Value given by division of CI of each test compound by CI of
determination of antitumour activity of the test compound. A CIc
5×10^6 cells of Sarcoma 180 solid tumour were intraperitoneally implanted into ddY mice. 7 days later, ascites cells were sampled. The cells were washed once with a sterilized physiological sodium chloride solution and were used to prepare a cell suspension containing 5×10^7 cells per ml with a sterilized physiological sodium chloride solution. On each occasion, 0.1 ml of the cell suspension was subcutaneously implanted into the right axilla of a male mouse (ddY strain; body weight 20±2 g).
The anti-tumour activity was determined in the following manner. 7 days after the implantation, the major axis (a) and the minor axis (b) of the tumour were measured to calculate a value of "a×b^2 /2" which corresponds to the volume of the tumour. The anti-tumour activity was expressed by the ratio (T/C) of the volume (T) of the tumours of the group of animals administered with the test compound to the corresponding volume (C) of tumours of the untreated animals.
On graph paper, T/C was indicated by an arithmetic scale on the longitudinal axis and the administered amount of the test compound was indicated by a logarithmic scale on the lateral axis.

[7] = Acute toxicity; settings: mouse, in vivo, ip; ddY mice, intraperitoneally once, 14 days observation
Description: Each animal of the test group consisting of 5 ddY mice was administered intraperitoneally once with a test compound. […] The LD50 was determined by Beherns Kaerber's method.

[8] = test system: peripheral leucocytes; test: Effect on the peripheral leucocytes number; type: in vivo, mouse (ddY strain); settings: minimum dose reducing peripheral leucocytes number to 4000/mm^3; tumour-carrying ddY mice, intraperitoneal, 4 days after administration
Description: WBC4000 : Minimum dose of a test compound which reduces the
peripheral leucocytes number to 4000/mm^3.
Sarcoma 180 solid tumour cells (5×10^6) were subcutaneously implanted into the right axilla of each mouse (body weight 20±2 g) of a group consisting of 5 male mice (ddY strain). 24 hours after implantation,a test compound was intraperitoneally administered to each animal. 4 days after the administration, blood (each 0.02 ml) was collected from the suborbital plexus vein of each tumour-carrying animal. The collected sample of blood was dispersed in 9.98 ml of Cell-Kit Seven solution. One drop of saponin solution was added to the sample to dissolve erythrocytes and then a microcell counter was used to count the number of leucocytes. […] The relationship between the number of peripheral leucocytes and the dose of the test compound was plotted and the dose (i.e., WBC4000) corresponding to 4000 peripheral leucocytes/mm^3 (about half the number of leucocytes of normal mice) was obtained.

[9] = Solubility in water; type: physicochemical; settings: aqueous buffer; 0.03M phosphate buffer (pH 7.0), 22° C., 15 minutes
Description: 1 mg of a test compound was added to 100 μl of 0.03M phosphate buffer (pH 7.0). The mixture was stirred at 22° C. for 15 minutes and filtered through Ekicrodisc 3 (disposable filter unit, Gelman Sciences Japan Co.) to remove insoluble matters. The filtrate is a saturated solution of the test compound. Predetermined amount of the saturated solution was injected into a high performance liquid chromatograph [column: YMC-A212 (C8) .phi.6 mm, 150 mm, eluting solvent: 0.01M-ammonium acetate/methanol, wave length for detection: 254 nm] and peak area of the chromatogram was calculated. Separately, a solution of the test compound in methanoL having a certain concentration of the compound was similarly subjected to the chromatography to make the calibration curve. The solubility of the test compound was calculated by the calibration curve.

| Compound | MIC [1] | MIC [2] | MIC [3] | MIC [4] | MIC [5] | CIc [6] | ED50 [6] | CI (LD50/ED50) [6] | LD50 at 336 h [7] | WBC4000 [8] | solubility at 0.25 h [9] |
| --- | --- | --- | --- | --- | --- | --- | --- | --- | --- | --- | --- |
| CO[C@@]12[C@H](COC(N)=O)C3=C(C(=O)C(C)=C(NCCSC(C)=O)C3=O)N1C[C@@H]1N[C@@H]12 [Compound 1, 7-N-[(2-acetylthio)ethyl]mitomycin] | < 0.02 µg/mL | < 0.02 µg/mL | < 0.02 µg/mL | 1.3 µg/mL (≈ 2.98 µM) | 0.078 µg/mL (≈ 0.179 µM) | 1.2 | 2.3 mg/kg | 2.4 | 5.6 mg/kg | 9.5 mg/kg | 5600 µg/mL (≈ 12800 µM) |
| CO[C@@]12[C@H](COC(N)=O)C3=C(C(=O)C(C)=C(NCCCCSC(C)=O)C3=O)N1C[C@@H]1N[C@@H]12 [Compound 9] | < 0.02 µg/mL | 0.039 µg/mL (≈ 0.084 µM) | < 0.02 µg/mL | 5 µg/mL (≈ 10.8 µM) | 0.31 µg/mL (≈ 0.667 µM) | 1.6 | 21.7 mg/kg | 4.1 | 90 mg/kg | 65.2 mg/kg | 2000 µg/mL (≈ 4310 µM) |
| CO[C@@]12[C@H](COC(N)=O)C3=C(C(=O)C(C)=C(NCCCCCSC(C)=O)C3=O)N1C[C@@H]1N[C@@H]12 [Compound 10] | 0.039 µg/mL (≈ 0.0815 µM) | 0.078 µg/mL (≈ 0.163 µM) | 0.078 µg/mL (≈ 0.163 µM) | 5 µg/mL (≈ 10.4 µM) | 1.3 µg/mL (≈ 2.72 µM) | > 1.1 | 37.5 mg/kg | > 2.0 | > 75 mg/kg | > 75 mg/kg | 1000 µg/mL (≈ 2090 µM) |
| CO[C@@]12[C@H](COC(N)=O)C3=C(C(=O)C(C)=C(NCCCCCCSC(C)=O)C3=O)N1C[C@@H]1N[C@@H]12 [Compound 11] | 0.16 µg/mL (≈ 0.325 µM) | 0.16 µg/mL (≈ 0.325 µM) | 0.16 µg/mL (≈ 0.325 µM) | 2.5 µg/mL (≈ 5.08 µM) | 1.3 µg/mL (≈ 2.64 µM) | 3.9 | 27 mg/kg | > 7.4 | > 200 mg/kg | 31.3 mg/kg | 210 µg/mL (≈ 426 µM) |
| CO[C@@]12[C@H](COC(N)=O)C3=C(C(=O)C(C)=C(NCCCSC(C)=O)C3=O)N1C[C@@H]1N[C@@H]12 [Compound 7] | < 0.02 µg/mL | 0.039 µg/mL (≈ 0.0866 µM) | < 0.02 µg/mL | 2.5 µg/mL (≈ 5.55 µM) | 0.31 µg/mL (≈ 0.688 µM) | 0.88 | 5.2 mg/kg | 2.2 | 11.3 mg/kg | > 25 mg/kg | 3500 µg/mL (≈ 7770 µM) |
| CO[C@@]12[C@H](COC(N)=O)C3=C(C(=O)C(C)=C(NCCSC(=O)c4ccc(Br)cc4)C3=O)N1C[C@@H]1N[C@@H]12 [Compound 21] | 0.039 µg/mL (≈ 0.0675 µM) | < 0.02 µg/mL | < 0.02 µg/mL | 5 µg/mL (≈ 8.66 µM) | 1.3 µg/mL (≈ 2.25 µM) | 1.9 | 2 mg/kg | 4.7 | 9.4 mg/kg | 11.5 mg/kg | 4.7 µg/mL (≈ 8.14 µM) |
| CO[C@@]12[C@H](COC(N)=O)C3=C(C(=O)C(C)=C(NCCSC(C)=S)C3=O)N1C[C@@H]1N[C@@H]12 [Compound 26] | < 0.02 µg/mL | < 0.02 µg/mL | < 0.02 µg/mL | 0.63 µg/mL (≈ 1.39 µM) | 0.078 µg/mL (≈ 0.172 µM) | 1.6 | 1.2 mg/kg | 5.5 | 6.6 mg/kg | 7.6 mg/kg | 260 µg/mL (≈ 575 µM) |
| CC(=O)SCCCNC1=C(C)C(=O)C2=C(C1=O)[C@H](COC(N)=O)[C@@]1(O)[C@@H]3[C@H](CN21)N3C (some centres unmarked) [Compound 8, 7-N-(3-acetylthiopropyl)mitomycin D] | 50 µg/mL (≈ 111 µM) | > 100 µg/mL | 13 µg/mL (≈ 28.9 µM) |  |  |  |  |  |  |  | 9600 µg/mL (≈ 21300 µM) |
| CC(=O)SCCNC1=C(C)C(=O)C2=C(C1=O)[C@H](COC(N)=O)[C@@]1(O)[C@@H]3[C@H](CN21)N3C (some centres unmarked) [Compound 2] | 3.1 µg/mL (≈ 7.1 µM) | 3.1 µg/mL (≈ 7.1 µM) | 0.78 µg/mL (≈ 1.79 µM) | 25 µg/mL (≈ 57.3 µM) | 6.3 µg/mL (≈ 14.4 µM) | 1.9 | 5.6 mg/kg | 4.7 | 26.3 mg/kg | 14.1 mg/kg | 8900 µg/mL (≈ 20400 µM) |
| CO[C@@]12[C@H](COC(N)=O)C3=C(C(=O)C(C)=C(NCCSC(C)=O)C3=O)N1C[C@H]1[C@@H]2N1C (some centres unmarked) [Compound 3] | 0.039 µg/mL (≈ 0.0866 µM) | 0.078 µg/mL (≈ 0.173 µM) | < 0.02 µg/mL | 20 µg/mL (≈ 44.4 µM) | 1.3 µg/mL (≈ 2.89 µM) | 0.88 | 5.6 mg/kg | 1.7 | 9.4 mg/kg | 11.0 mg/kg | 3800 µg/mL (≈ 8430 µM) |
| C=C1C2=C(C(=O)C(C)=C(NCCSC(C)=O)C2=O)N2C[C@H]3[C@H](N3C)[C@]12O (some centres unmarked) [Compound 4] | > 100 µg/mL | 50 µg/mL (≈ 133 µM) | 6.3 µg/mL (≈ 16.8 µM) | 100 µg/mL (≈ 266 µM) | 25 µg/mL (≈ 66.6 µM) | 1.6 | 14.9 mg/kg | 3.0 | 45 mg/kg | 27.1 mg/kg | 1900 µg/mL (≈ 5060 µM) |
| CO[C@@]12[C@H](COC(N)=O)C3=C(C(=O)C(C)=C(NCCSC(=O)c4ccccc4)C3=O)N1C[C@@H]1N[C@@H]12 [Compound 13] | 0.039 µg/mL (≈ 0.0782 µM) | < 0.02 µg/mL | < 0.02 µg/mL | 5 µg/mL (≈ 10 µM) | 1.3 µg/mL (≈ 2.61 µM) | 0.91 | 4.1 mg/kg | 1.5 | 6 mg/kg | > 5 mg/kg | 73 µg/mL (≈ 146 µM) |

Source: patent publication US4771068A, “Mitomycin derivatives having anti-tumor and antibacterial utility” (priority 1985, dated 1988)
